Active and inactive are the calls of the source. No cut-off for these calls is given here.

Assay [1] concerns MDA-MB-468. Put plainly: Antiproliferative activity against human MDA-MB-468 cells assessed as cell growth at 1 uM incubated for 3 days by 3H-thymidine incorporation assay relative to control. The class given is functional. To be noted: read-out: Activity. On the technique in general: Uptake of a labelled nucleoside into DNA is a usual measure of proliferation.
A short description of assay [2]: Antiproliferative activity against human HCT116 cells assessed as cell growth at 1 uM incubated for 3 days by 3H-thymidine incorporation assay relative to control. It counts as functional. To be noted: HCT-116, read-out: Activity.
Assay [3] deals with Pseudomonas aeruginosa. Put plainly: Antibacterial activity against Pseudomonas aeruginosa at 1 to 10 mg/ml incubated overnight by agar diffusion method. It counts as functional, organism-based. (A growth-free zone around the sample is the usual read-out of agar diffusion tests.)
The subject of assay [4] is Escherichia coli. The assay is described as follows: Antibacterial activity against Escherichia coli DH5[alpha] at 1 to 10 mg/ml incubated overnight by agar diffusion method. The class given is functional, organism-based.
Assay [5] has as its system Staphylococcus aureus. Put plainly: Antibacterial activity against Staphylococcus aureus at 1 to 10 mg/ml incubated overnight by agar diffusion method. The class given is functional, organism-based.
Assay [6] relates to MDA-MB-231. The assay is described as follows: Antiproliferative activity against human MDA-MB-231 cells assessed as cell growth at 1 uM incubated for 3 days by 3H-thymidine incorporation assay relative to control. The class given is functional. Particulars: read-out: Activity.
Assay [7] deals with MDA-MB-468. The assay is described as follows: Antiproliferative activity against human MDA-MB-468 cells assessed as cell growth incubated for 3 days by 3H-thymidine incorporation assay relative to control. It counts as functional, cell-based.
Assay [8] deals with K562. The assay is described as follows: Antiproliferative activity against human K562 cells assessed as cell growth incubated for 3 days by 3H-thymidine incorporation assay relative to control. It counts as functional, cell-based.
For assay [9], the system named is MDA-MB-231. Put plainly: Antiproliferative activity against human MDA-MB-231 cells assessed as cell growth incubated for 3 days by 3H-thymidine incorporation assay relative to control. The class given is functional, cell-based.
A short description of assay [10]: Antiproliferative activity against human HCT116 cells assessed as cell growth incubated for 3 days by 3H-thymidine incorporation assay relative to control. To be noted: HCT-116. It counts as functional, cell-based.

`Nc1c(C(=O)Nc2ccccc2Cl)sc2nc3c(cc12)CCCC3`: the growth at 1 µM in assay [1] came to 95%; in [2], 94%; in assay [6], 119%. The result in [3], in [4] and in assay [5] was inactive.
Usually IC50 stands for the concentration at which inhibition is half-maximal. With `Nc1c(C(=O)Nc2ccccc2)sc2nc3c(cc12)CCCCC3`, the growth at 1 µM in [1] came out at 5%; in assay [2] it was 6%; in assay [6], 26%. Further, the IC50 amounted to 383 nM in assay [7], 570 nM in assay [8], 508 nM in assay [9] and 606 nM in assay [10].
In the case of `Nc1c(C(=O)Nc2cccc3ccccc23)sc2nc3c(cc12)CCCC3`, the growth at 1 µM in [1] amounted to 8%; in assay [2] it was 37%; in assay [6] it was 60%. Also, the IC50 is 447 nM in assay [7], 576 nM in [8], 854 nM in assay [9] and 720 nM in [10]. In addition, the result in [3], in assay [4] and in [5] was inactive.
In the case of `Nc1c(C(=O)Nc2cccc(Cl)c2)sc2nc3c(cc12)CCCC3`, the growth at 1 µM in assay [1] was found to be 58%; in assay [2] it was 80%; in assay [6] it was 98%. The result in [3], in assay [4] and in [5] was inactive.
In the case of `Cc1c(Cl)cccc1NC(=O)c1sc2nc3c(cc2c1N)CCCCC3`, the values for the growth at 1 µM in assay [1], in assay [2] and in assay [6] were 3%, 10% and 13%, respectively. Also, the IC50 in assay [7] is 160 nM; in assay [8], 210 nM; in assay [9], 190 nM; in assay [10], 266 nM.
For `Cc1c(Cl)cccc1NC(=O)c1sc2nc3c(cc2c1N)CCC3`, the growth at 1 µM in [1] stood at 4%; in assay [2] it was 3%; in assay [6], 11%. The IC50 in assay [7] was determined as 546 nM; in [8] it was 197 nM; in assay [9], 593 nM; in assay [10], 218 nM.
On to `COc1cccc(NC(=O)c2sc3nc4c(cc3c2N)CCCCC4)c1`, for which the values for the growth at 1 µM in assay [1], in assay [2] and in [6] were 3%, 6% and 19%, respectively. Also, the IC50 in assay [7] was 391 nM; in assay [8], 580 nM; in [9], 524 nM; in assay [10], 601 nM.
In the case of `Cc1cccc(NC(=O)c2sc3nc4c(cc3c2N)CCCCCC4)c1C`, the growth at 1 µM in assay [1] was 4%; in [2], 6%; in assay [6] it was 3%. Also, the half-inhibitory concentration (IC50) in assay [7] came out at 83 nM; in [8] it was 83 nM; in assay [9] it was 170 nM; in [10] it was 183 nM.
In the case of `Cc1c(Br)cccc1NC(=O)c1sc2nc3c(cc2c1N)CCCCC3`, the growth at 1 µM in assay [1] stood at 3%; in [2] it was 8%; in assay [6], 12%. The IC50 in [7] was found to be 199 nM; in assay [8] it was 223 nM; in [9] it was 198 nM; in assay [10] it was 442 nM.
Consider `Nc1c(C(=O)Nc2ccccc2)sc2nc3c(cc12)CCCC3`, for which the growth at 1 µM in assay [1] amounted to 8%; in [2] it was 5%; in assay [6] it was 22%. For the same compound, the IC50 in assay [7] amounted to 407 nM; in assay [8], 526 nM; in assay [9] it was 617 nM; in [10], 594 nM.
For `Nc1c(C(=O)Nc2ccccc2F)sc2nc3c(cc12)CCCCCC3`, the values for the growth at 1 µM in assay [1], in assay [2] and in assay [6] were 5%, 5% and 24%, respectively. Further, the IC50 in [7] stood at 372 nM; in assay [8], 562 nM; in assay [9], 587 nM; in assay [10], 599 nM.
As to `Cc1c(Br)cccc1NC(=O)c1sc2nc3c(cc2c1N)CCC3`, the growth at 1 µM was determined as 5% in assay [1], 5% in assay [2] and 16% in [6]. Besides, the IC50 in [7] stood at 79 nM; in assay [8] it was 83 nM; in [9] it was 84 nM; in assay [10], 161 nM.
`Cc1c(Cl)cccc1NC(=O)c1sc2nc3c(cc2c1N)CCCC3`: the growth at 1 µM in assay [1] amounted to 6%; in assay [2] it was 3%; in assay [6], 15%. In addition, the IC50 in [7] came to 134 nM; in assay [8], 153 nM; in assay [9], 221 nM; in [10], 191 nM. Moreover, the result in assay [3], in assay [4] and in assay [5] was inactive.
As for `Nc1c(C(=O)Nc2ccccc2F)sc2nc3c(cc12)CCCCC3`, the figures for the growth at 1 µM in [1], in [2] and in assay [6] were 11%, 15% and 46%, respectively. Further, the half-maximal inhibitory concentration (IC50) was 528 nM in [7], 575 nM in assay [8], 672 nM in assay [9] and 798 nM in [10].
On to `Cc1c(Br)cccc1NC(=O)c1sc2nc3c(cc2c1N)CCCC3`, for which the growth at 1 µM worked out at 3% in assay [1], 5% in [2] and 5% in assay [6]. Besides, the IC50 in assay [7] worked out at 185 nM; in assay [8] it was 185 nM; in assay [9], 233 nM; in assay [10] it was 207 nM.
For the compound `COc1cccc(NC(=O)c2sc3nc4c(cc3c2N)CCC4)c1`, the results for the growth at 1 µM in assay [1], in assay [2] and in assay [6] were 63%, 92% and 95%, respectively. For the same compound, the result in assay [3], in assay [4] and in [5] was inactive.
Consider `Nc1c(C(=O)Nc2cccc(F)c2)sc2nc3c(cc12)CCCCC3`, for which the growth at 1 µM stood at 10% in assay [1], 29% in assay [2] and 28% in assay [6]. Besides, the IC50 worked out at 351 nM in [7], 558 nM in assay [8], 448 nM in assay [9] and 543 nM in assay [10].
For `Cc1cccc(NC(=O)c2sc3nc4c(cc3c2N)CCCC4)c1C`, the growth at 1 µM in [1] was 3%; in assay [2], 5%; in [6] it was 4%. Moreover, the IC50 in assay [7] came to 148 nM; in assay [8], 152 nM; in assay [9], 204 nM; in [10] it was 199 nM.
For the compound `Nc1c(C(=O)Nc2cccc(F)c2)sc2nc3c(cc12)CCCC3`, the growth at 1 µM worked out at 11% in assay [1], 11% in assay [2] and 30% in assay [6]. Besides, the IC50 in [7] was 398 nM; in [8], 554 nM; in [9] it was 632 nM; in assay [10], 563 nM.
For the compound `Nc1c(C(=O)Nc2cccc(Br)c2)sc2nc3c(cc12)CCCCC3`, the figures for the growth at 1 µM in assay [1], in assay [2] and in [6] were 45%, 83% and 92%, respectively.
As to `Cc1cccc(NC(=O)c2sc3nc4c(cc3c2N)CCCCC4)c1C`, the growth at 1 µM in [1] was 4%; in assay [2], 6%; in [6], 6%. The IC50 in assay [7] was determined as 121 nM; in assay [8], 167 nM; in assay [9] it was 198 nM; in assay [10] it was 204 nM.
In the case of `COc1ccc(NC(=O)c2sc3nc4c(cc3c2N)CCCCCC4)cc1OC`, the growth at 1 µM was 107% in assay [1], 106% in assay [2] and 102% in [6].
In the case of `Cc1ccccc1NC(=O)c1sc2nc3c(cc2c1N)CCCC3`, the growth at 1 µM in [1] was 53%; in assay [2], 84%; in assay [6] it was 70%.
The matching figures for `COc1ccc(NC(=O)c2sc3nc4c(cc3c2N)CCCC4)cc1`: 84%, 99% and 98%.
The matching figures for `Nc1c(C(=O)Nc2cccc(C(F)(F)F)c2)sc2nc3c(cc12)CCC3`: 58%, 90% and 100%.
The matching figures for `Cc1ccc2nc3sc(C(=O)Nc4cccc(F)c4)cc3cc2c1`: 91%, 98% and 103%.
As to `Nc1c(C(=O)Nc2ccc(Cl)cc2)sc2nc3c(cc12)CCCCCC3`, the growth at 1 µM in assay [1] turned out to be 82%; in assay [2], 94%; in assay [6], 117%.

The values are drawn from ChEMBL document CHEMBL3758085, “Synthesis and cytotoxicity of thieno[2,3-b]quinoline-2-carboxamide and cycloalkyl[b]thieno[3,2-e]pyridine-2-carboxamide derivatives” (Bioorg Med Chem, 2016).
